Experiments:
[1] = Apparent permeability from basolateral to apical side of MDCK cells at 2 uM by LC-MS/MS analysis; assay type: ADME, cell-based, Canis lupus familiaris; conditions: dog
[2] = Apparent permeability from apical to basolateral side of MDCK cells at 2 uM by LC-MS/MS analysis; assay type: ADME, cell-based, Canis lupus familiaris; conditions: dog

Row | Papp B→A at 2 µM [1] | Papp A→B at 2 µM [2] | SMILES
1 | 2 ×10⁻⁶ cm/s | 3 ×10⁻⁶ cm/s | CC(C)CN(Cc1ccc(-c2ccc(S(C)(=O)=O)cc2)cc1)S(=O)(=O)Cc1ccccc1
2 | 24 ×10⁻⁶ cm/s | 24 ×10⁻⁶ cm/s | CC(=O)N1CCN(c2ccc(CN(C3CCC3)S(=O)(=O)Cc3ccccc3)cc2)CC1

From ChEMBL document CHEMBL3352759, “Reduction in lipophilicity improved the solubility, plasma-protein binding, and permeability of tertiary sulfonamide RORc inverse agonists” (Bioorg Med Chem Lett, 2014)
